# Test results from PMC12794084, “Radiosynthesis and Preclinical Evaluation of a Novel ^11C‑Labeled Pyrazolopyrimidine Derivative for Positron Emission Tomography Imaging of Phosphodiesterase 2A” (ACS Medicinal Chemistry Letters, 2025).
# Like-named read-outs stand apart in the source and are kept apart here.
# Tests used:
# [1] = target: T1, PDE2A (Rattus norvegicus, UniProt Q01062); assay: In vitro autoradiography on SD rat brain sections; type: binding; conditions: co-incubation with 1 μM blocker
# T1 construct: we first conducted in vitro autoradiography studies on SD rat brain sections; from tissue; host or cells: male Sprague-Dawley rat brain sections (20 μm)
# T1 sequence (Q01062 1-928): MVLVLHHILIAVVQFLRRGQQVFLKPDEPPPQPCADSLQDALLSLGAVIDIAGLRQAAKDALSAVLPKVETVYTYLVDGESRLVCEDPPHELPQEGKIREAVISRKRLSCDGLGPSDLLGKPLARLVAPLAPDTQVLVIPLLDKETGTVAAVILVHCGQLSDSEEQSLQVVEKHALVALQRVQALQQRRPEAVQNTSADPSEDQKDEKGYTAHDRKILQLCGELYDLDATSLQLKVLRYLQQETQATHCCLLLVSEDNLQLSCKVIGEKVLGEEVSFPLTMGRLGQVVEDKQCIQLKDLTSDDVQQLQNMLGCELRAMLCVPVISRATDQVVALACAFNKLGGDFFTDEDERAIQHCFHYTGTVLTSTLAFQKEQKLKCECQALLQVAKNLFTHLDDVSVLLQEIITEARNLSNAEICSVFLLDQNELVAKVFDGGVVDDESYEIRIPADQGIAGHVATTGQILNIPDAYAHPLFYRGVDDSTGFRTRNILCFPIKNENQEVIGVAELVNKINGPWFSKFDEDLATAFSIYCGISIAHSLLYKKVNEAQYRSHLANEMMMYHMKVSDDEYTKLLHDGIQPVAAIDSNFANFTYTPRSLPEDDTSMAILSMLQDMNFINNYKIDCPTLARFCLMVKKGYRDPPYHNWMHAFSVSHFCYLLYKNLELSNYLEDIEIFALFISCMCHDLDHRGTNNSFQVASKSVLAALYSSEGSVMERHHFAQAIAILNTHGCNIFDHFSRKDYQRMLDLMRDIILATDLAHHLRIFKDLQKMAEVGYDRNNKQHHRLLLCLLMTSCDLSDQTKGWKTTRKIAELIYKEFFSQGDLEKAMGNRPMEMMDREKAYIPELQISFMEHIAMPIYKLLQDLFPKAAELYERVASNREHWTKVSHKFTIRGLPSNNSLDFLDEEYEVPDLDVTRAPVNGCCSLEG
# Description: After incubation, sections were washed three times (2 min each) with prechilled buffer and briefly rinsed in cold distilled water (10 s). The slices were then air-dried and placed on imaging screens for 60 min before being scanned using a BAS5000 system (Fujifilm).
# [2] = Ex vivo radiometabolite analysis in SD rats; conditions: SD rat
# Excerpt: Brain and plasma samples were rapidly collected and processed following previously reported procedures.
# [3] = Ex vivo whole-body biodistribution in ddY mice; design: species or system mouse; conditions: 60 min postinjection, i.v.
# Description: Decay-corrected radioactivity in each organ was measured using a Wizard automatic gamma counter (PerkinElmer, USA).
# [4] = Dynamic PET imaging in SD rats; type: in vivo; conditions: SD rat, baseline
# Description: Dynamic PET imaging was performed using an Inveon PET scanner (Siemens). […] Images were reconstructed using a Hanning filter with a Nyquist cutoff of 0.5 cycles/pixel, with the following framing: 4 × 1 min, 8 × 2 min, and 8 × 5 min. Data analysis was performed using PMOD version 3.4.
# [5] = target: PDE2A (Homo sapiens, UniProt O00408); conditions: cited from earlier work
# Chain of PDE2A (Homo sapiens, UniProt O00408) (O00408 whole entry): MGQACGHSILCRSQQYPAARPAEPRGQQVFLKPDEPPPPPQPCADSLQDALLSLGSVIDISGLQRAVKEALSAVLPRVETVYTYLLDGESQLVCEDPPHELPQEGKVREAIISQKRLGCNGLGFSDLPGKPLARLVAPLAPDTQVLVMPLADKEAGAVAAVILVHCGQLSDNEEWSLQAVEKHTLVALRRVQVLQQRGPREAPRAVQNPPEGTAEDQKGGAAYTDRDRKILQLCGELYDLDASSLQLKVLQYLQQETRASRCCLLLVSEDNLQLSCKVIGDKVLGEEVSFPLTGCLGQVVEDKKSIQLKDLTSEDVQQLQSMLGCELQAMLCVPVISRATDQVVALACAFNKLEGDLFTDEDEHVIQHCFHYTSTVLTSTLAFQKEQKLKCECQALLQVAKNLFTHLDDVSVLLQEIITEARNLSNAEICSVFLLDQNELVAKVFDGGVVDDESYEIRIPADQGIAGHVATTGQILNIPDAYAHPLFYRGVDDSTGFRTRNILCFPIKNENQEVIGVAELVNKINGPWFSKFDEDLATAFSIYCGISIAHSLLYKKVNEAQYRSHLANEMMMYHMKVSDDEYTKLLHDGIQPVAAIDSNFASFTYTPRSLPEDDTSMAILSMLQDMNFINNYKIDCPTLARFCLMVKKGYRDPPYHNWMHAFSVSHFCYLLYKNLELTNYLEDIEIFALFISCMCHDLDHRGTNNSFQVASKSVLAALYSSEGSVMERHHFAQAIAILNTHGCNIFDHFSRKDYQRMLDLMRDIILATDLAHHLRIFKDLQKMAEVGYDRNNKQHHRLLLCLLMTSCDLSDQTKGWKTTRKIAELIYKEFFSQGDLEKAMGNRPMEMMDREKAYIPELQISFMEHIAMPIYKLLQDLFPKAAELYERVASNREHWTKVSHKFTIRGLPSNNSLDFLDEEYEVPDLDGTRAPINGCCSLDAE
# [6] = Unbound brain fraction; type: in vitro ADME
# [7] = logD by shake flask method with LC-MS/MS analysis; type: physicochemical
smiles,measurement,setting,value
COc1ccc(Cc2nn3c([C@@H](CCCc4ccccc4)[C@@H](C)O)nc(C)c3c(=O)[nH]2)cc1OC [BAY 60-7550],blocking effect on [11C]1 signal in autoradiography,[1],significantly reduced the radiotracer signal in PDE2A-rich regions
Cn1ncc(-c2nn(C)c3ncnc(N4CCC4)c23)c1-c1ccc(C(F)(F)F)cc1 [PF-05085727],blocking effect on [11C]1 signal in autoradiography,[1],significantly reduced the radiotracer signal in PDE2A-rich regions
Cc1nc(NC2(c3ccc(C(F)(F)F)cc3)CC2)c2cnn([11CH3])c2n1 [[^11C]1],% of unchanged form in brain,[2]; 10 min postinjection,97%
same,% of unchanged form in plasma,[2]; 10 min postinjection,54%
same,% of unchanged form in brain,[2]; 30 min postinjection,86%
same,% of unchanged form in plasma,[2]; 30 min postinjection,34%
same,small intestine uptake,[3],11 ± 1.5 % ID/g
same,brain distribution in summed PET images,[4]; 3–20 min,homogeneous distribution
same,SUVmax (brain uptake),[4]; at 2 min postinjection,1.65
same,brain SUV,[4]; by 20 min,below 0.5
Cc1nc(-c2cnn(C)c2-c2ccc(C(F)(F)F)cc2)c2c(N3CC([18F])C3)ncnn12 [[^18F]PF-05270430],IC50,[5]; literature PET radioligands,0.5 nM
COc1ccc2nnc3c(C)nc(-c4cc(OCCCC[18F])ccc4F)n3c2n1 [[^18F]TA4],IC50,"[5]; triazine scaffold tracers, ref Schröder et al.",7.3 nM
"Cc1nc(NC2(c3ccc(C(F)(F)F)cc3)CC2)c2cnn(C)c2n1 [compound 1, 1,6-Dimethyl-N-(1-(4-(trifluoromethyl)-phenyl)-cyclopropyl)-1H-pyrazolo[3,4-d]-pyrimidin-4-amine]",f u brain,[6],7.2%
same,logD,[7],3.88
